This is an account of results in ChEMBL document CHEMBL1127616, “Synthesis, structural characterization, and antitumor properties of a novel class of large-ring platinum(II) chelate complexes incorporating the cis-1,4-diaminocyclohexane ligand in a unique locked boat conformation” (J Med Chem, 1994).

Common to all, as to assay type: functional, cell-based
Holding throughout (conditions): Mus musculus

Assay [1] concerns L1210. Description: Tested for in vitro growth inhibition against murine leukemia cell L1210DACH.
The subject of assay [2] is L1210. Description: Tested for in vitro growth inhibition against murine leukemia cell L1210DDP5.
Assay [3] has as its system L1210. Description: Tested for in vitro growth inhibition against murine leukemia cell L1210PtR4.
In assay [4] the test system is L1210. Description: Tested for in vitro growth inhibition against murine leukemia cell L1210S.
Assay [5] concerns P388. Description: Tested for in vitro growth inhibition against murine leukemia cell P388Pt4.
The test system of assay [6] is P388. Description: Tested for in vitro growth inhibition against murine leukemia cell P388S.

With CI-973, the ID50 in the assay on L1210 [1] stood at 1.8 µg/mL; in the assay on L1210 [2], 3.9 µg/mL; in the assay with L1210 [3] it was 2.6 µg/mL; in the assay on L1210 [4], 0.76 µg/mL; in the assay with P388 [5], 1.62 µg/mL; in the assay with P388 [6], 0.1 µg/mL.
Consider [Pt(1R,2R-dach)Cl2], for which the ID50 with L1210 [1] amounted to 4.57 µg/mL; with L1210 [2] it was 0.164 µg/mL; in the assay with L1210 [3], 0.161 µg/mL; in the assay on L1210 [4] it was 0.059 µg/mL; with P388 [5], 0.83 µg/mL; in the assay with P388 [6] it was 0.077 µg/mL.
